Reference: US9962333B2, “Timed release of substances to treat ocular disorders” (BOARD OF TRUSTEES OF NORTHERN ILLINOIS UNIVERSITY, priority 2013, dated 2018)
In brackets after ≈: the same amount, converted by molar mass.

Assay: physchem
Conditions: 37 °C, aqueous with cosolvent or surfactant or cyclodextrin, thermodynamic from solid
Experimental: (a) 50 mg of riboflavin was mixed with different concentrations of HP-β-CD (5, 10, 15, 20, 25, 30 mM)
(b) the mixture was stirred on rotary shaker for 72 hours at 37° C.
(c) after reaching equilibrium, samples were filtered through a 0.2 μm filter and suitably analyzed using UV-vis spectrophotometer.
(b) The mixture was stirred for 72 hrs. on a rotary shaker at 37° C.
(c) After reaching equilibrium, samples were filtered through 0.2 μm membrane filter & analyzed using a spectrophotometer.
(b) The solutions were left to equilibrate for 3 days on a shaker.
(c) After filtration, the solutions were analyzed by UV-vis spectroscopy.
The UV-vis absorption spectrum was obtained for each solution.
The data was used to plot a phase solubility curve for both the cyclodextrine.
50 mg of ofloxacin was added to each sample and then shaken for 72 hrs to attain equilibrium.

solubility at 72 h (Solubility for HPβ CD): 33 mg/mL (≈ 87.8 mM) | solubility at 72 h (Solubility for methyl β CD): 31.1 mg/mL (≈ 82.6 mM)
Structure (SMILES): Cc1cc2nc3c(=O)[nH]c(=O)nc-3n(C[C@H](O)[C@H](O)[C@H](O)CO)c2cc1C [Riboflavin, riboflavin]
